Structures can show the parent of a compound that is named as a salt.
System: isolated rat aorta
Test: Calcium inhibitory properties: contractile response to potassium-induced depolarization on isolated rat aorta
Parameters: species or system isolated organ, male Wistar rats
Conditions: for activity at 0.1 µM: 10^-7 M; for activity at 0.01 µM: 10^-8 M; for activity at 1 µM: 10^-6 M; for % of the maximum contractional effect: head printed "10^-" (exponent missing; first of three columns before 10^-6 M), 60 min
Description: It is well established that the depolarization of a smooth muscle membrane by potassium renders the latter permeable to extracellular calcium and induces muscle contraction. Consequently, the measurement of the inhibition of the contractile response to depolarization by potassium, or the measurement of a relaxation of the tonic contraction on potassium depolarization, can represent an evaluation of the power of a compound as an inhibitor of the membrane permeability to Ca^++ ions. The technique used was as follows: The aorta was removed from male Wistar rats weighing approximately 300 g, and cut into strips approximately 40 mm long and 3 mm wide. These fragments were placed in a 25-ml isolated organ trough containing a modified Krebs-bicarbonate solution (112 mM NaCl; 5 mM KCl; 25 mM NaHCO3; 1 mM KH2 PO4; 1.2 mM MgSO4; 2.5 mM CaCl2; 11.5 mM glucose, distilled water to 1000 ml) through which a stream of 5-7% carbon dioxide in oxygen was passed, and maintained at 37° C. The preparation was connected to a force microsensor and the contractile response recorded after amplification on a recorder. A tension of 2 g was applied to the preparation. This tension was maintained for 60 minutes in the modified Krebs-bicarbonate solution, and contractions were then induced by replacing the Krebs-bicarbonate solution by a potassium-Krebs solution (17 mM NaCl; 100 mM KCl; 25 mM NaHCO3; 1 mM KH2 PO4; 1.2 mM MgSO4; 2.5 mM CaCl2; 11.5 mM glucose; distilled water to 1000 ml). When the contractile response of the preparation had become reproducible, a given amount of a compound of the invention was introduced into the bath. Sixty minutes later, a new spasm was induced by potassium depolarization. The results obtained on the aorta used in the experiment were then expressed as a percentage of the maximum contractional effect before incubation with the test substance. By way of examples, the results which follow were obtained, the compounds of formula (1) being in the form of the base, hydrochloride or oxalate.

[1] = Rattus norvegicus, 1 h, read-out: % of the maximum contractional effect

SMILES	activity at 0.1 µM [1] [%]	activity at 0.01 µM [1] [%]	activity at 1 µM [1] [%]	Activity ratio (compound / Compound D)	activity at 0.001 µM (Rattus norvegicus, 1 h, 10^-9 M, read-out: % of the maximum contractional effect) [%]	% of the maximum contractional effect [%]
CCCCN(CCCC)CCCOc1ccc([S+]([O-])c2c(C(C)C)cn3ccccc23)cc1 (racemic) [Ex. 54, 4-[3-(di-n-butylamino)propyl]oxyphenyl(2-isopropyl-1-indolizinyl)sulphoxide oxalate]	74.3	82.4				
CCc1cn2ccccc2c1S(=O)(=O)c1ccc(OCCCNC(C)(C)C)cc1 [Ex. 3, 2-ethyl-1-{4-[3-(tert-butylamino)propyloxy]benzenesulphonyl}indolizine hydrochloride]			30.7			
CCN(CC)CCCOc1ccc(S(=O)(=O)c2c(C)cn3ccccc23)cc1 [Ex. 4, 2-Methyl-1-{4-[3-(diethylamino)propyloxy]benzenesulphonyl}indolizine oxalate]			77.2			
CCCN(CCC)CCCOc1ccc(S(=O)(=O)c2c(C)cn3ccccc23)cc1 [Ex. 5, 2-Methyl-1-{4-[3-(di-n-propylamino)propyloxy]benzenesulphonyl}indolizine]			48.9			
CCCCN(CCCC)CCCOc1c(C)cc(S(=O)(=O)c2c(CC)cn3ccccc23)cc1C.Cl [Ex. 10, 2-Ethyl-1-{4-[3-(di-n-butylamino)propyloxy]-3,5-dimethylbenzenesulphonyl}indolizine hydrochloride]	49	82.6	2.9	2.2		
CCCCN(CCCC)CCCOc1ccc(S(=O)(=O)c2c(C(C)(C)C)cn3ccccc23)cc1 [Ex. 16, 2-tert-Butyl-1-{4-[3-(di-n-butylamino)propyloxy]-benzenesulphonyl}indolizine]	35.8	78.7				
CCCCN(CCCC)CCOc1ccc(S(=O)(=O)c2c(CC)cn3ccccc23)cc1 [Ex. 22, 2-Ethyl-1-{4-[2-(di-n-butylamino)ethyloxy]benzenesulphonyl}indolizine hydrochloride]	37	90.2				
CC(C)(C)NCCCOc1ccc(S(=O)(=O)c2c(-c3ccccc3)cn3ccccc23)cc1 [Ex. 24, 2-Phenyl-1-{4-[3-(tert-butylamino)propyloxy]benzenesulphonyl}indolizine hydrochloride]			62.1			
Cc1cc(S(=O)(=O)c2c(-c3ccccc3)cn3ccccc23)ccc1OCCCNC(C)(C)C [Ex. 25, 2-Phenyl-1-{4-[3-(tert-butylamino)propyloxy]-3-methylbenzenesulphonyl}indolizine hydrochloride]			67.7			
CC(C)c1cn2ccccc2c1S(=O)(=O)c1ccc(OCCCNCCc2ccccc2)cc1 [Ex. 31, 2-Isopropyl-1-{4-[3-(β-phenethylamino)propyloxy]benzenesulphonyl}indolizine hydrochloride]	31.8	73.9	16.8			
CC(C)c1cn2ccccc2c1S(=O)(=O)c1ccc(OCCCNCc2ccccc2)cc1 [Ex. 32, 2-Isopropyl-1-{4-[3-(benzylamino)propyloxy]benzenesulphonyl}indolizine hydrochloride]	19.4	65.9	3.6			
CC(C)c1cn2ccccc2c1S(=O)(=O)c1ccc(OCCCN2CCN(c3ccccc3)CC2)cc1 [Ex. 33, 2-Isopropyl-1-{4-[3-(N-phenylpiperazino)propyloxy]benzenesulphonyl}indolizine]	57.6	87	24.6			
CC(C)c1cn2ccccc2c1S(=O)(=O)c1ccc(OCCCNCCc2ccccn2)cc1 [Ex. 34, 2-Isopropyl-1-{4-[3-(2-pyridylethylamino)propyloxy]benzenesulphonyl}indolizine dioxalate]	28.1	82.6	3.3			
CC(C)c1cn2ccccc2c1S(=O)(=O)c1ccc(OCCCN2CCC(c3ccccc3)CC2)cc1 [Ex. 35, 2-Isopropyl-1-{4-[3-(4-phenylpiperidino)propyloxy]-benzenesulphonyl}indolizine]	25	65.6	8.3			
CCCCCCCCN(CCCCCCCC)CCCOc1ccc(S(=O)(=O)c2c(C(C)C)cn3ccccc23)cc1 [Ex. 36, 2-Isopropyl-1-{4-[3-(di-n-octylamino)propyloxy]-benzenesulphonyl}indolizine]	93.7		83.3			
CCCCCN(CCCCC)CCCOc1ccc(S(=O)(=O)c2c(C(C)C)cn3ccccc23)cc1 [Ex. 37, 2-Isopropyl-1-{4-[3-(di-n-pentylamino)propyloxy]-benzenesulphonyl}indolizine hydrochloride]	48.7	77.8				
CCc1cn2ccccc2c1S(=O)(=O)c1ccc(OCCCn2ccnc2)cc1 [Ex. 38, 2-Ethyl-1-{4-[3-(1-imidazolyl)propyloxy]benzenesulphonyl}indolizine]	85.9					
CCCCN(CCCC)CCCCOc1ccc(S(=O)(=O)c2c(C(C)C)cn3ccccc23)cc1 [Ex. 39, 2-Isopropyl-1-{4-[4-(di-n-butylamino)butyloxy]benzenesulphonyl}indolizine]	17.9	62.9				
CCCCN(CCCC)CCCCCOc1ccc(S(=O)(=O)c2c(CC)cn3ccccc23)cc1 [Ex. 40, 2-Ethyl-1-{4-[5-(di-n-butylamino)pentyloxy]benzenesulphonyl}indolizine]	49.7	87.9				
COc1ccc(CN(C)CCCOc2ccc(S(=O)(=O)c3c(C(C)C)cn4ccccc34)cc2)cc1OC [Ex. 41, 2-Isopropyl-1-[4-{3-[N-methyl-N-(3,4-dimethoxybenzyl)-amino]propyloxy}benzenesulphonyl]indolizine]	5.3	26.1			70.9	
COc1ccc(NCCCOc2ccc(S(=O)(=O)c3c(C(C)C)cn4ccccc34)cc2)cc1OC [Ex. 44, 2-Isopropyl-1-{4-[3-(3,4-dimethoxyanilino)propyloxy]benzenesulphonyl}indolizine hydrochloride]	78.9	89.5	29.8			
CCCCN(CCCC)CCCOc1ccc(Sc2ccncc2)cc1.O=C(O)C(=O)O.O=C(O)C(=O)O [Ex. 56, 4-{4-[3-(di-n-butylamino)propyloxy]phenylthio}pyridine dioxalate]	86.2		58			2.6
COc1ccc(CCN(C)CCCOc2ccc(Sc3ccncc3)cc2)cc1OC [Ex. 57, 4-[4-{3-[N-methyl-N-(3,4-dimethoxy-β-phenethyl)amino]propyloxy}phenylthio]pyridine oxalate]	85		59			3.1
CCCCN(CCCC)CCCOc1ccc(S(=O)(=O)c2ccccn2)cc1 [Ex. 58, 2-{4-[3-(di-n-butylamino)propyloxybenzenesulphonyl}pyridine oxalate]	88.9		84.7			37
CCCCN(CCCC)CCCOc1ccc(S(=O)(=O)c2ccncc2)cc1.O=C(O)C(=O)O.O=C(O)C(=O)O [Ex. 60, 4-{4-[3-(di-n-butylamino)propyloxy]benzenesulphonyl}pyridine dioxalate]	89.7		75.5			20.2
COc1ccc(CCN(C)CCCOc2ccc(S(=O)(=O)c3ccncc3)cc2)cc1OC [Ex. 61, 4-[4-{3-[N-methyl-N-(3,4-dimethoxy-βphenethyl)amino]propyloxy}benzenesulphonyl]pyridine oxalate]	88		70.7			14
CC(C)(C)NCCCOc1ccc(S(=O)(=O)c2ccccn2)cc1 [Ex. 62, 2-{4-[3-(tertiobutylamino)propyloxy]benzenesulphonyl}pyridine oxalate]			87.1			70.6
CCCCN(CCCC)CCCOc1ccc(S(=O)(=O)c2ccoc2C(C)C)cc1 [Ex. 78, 2-isopropyl-3-{4-[3-(di-n-butylamino)propyloxy]benzenesulphonyl}furan oxalate]	59.4	90.3	4			
CC(C)c1occc1S(=O)(=O)c1ccc(OCCCNC(C)(C)C)cc1 [Ex. 79, 2-isopropyl-3-{4-[3-(tert-butylamino)propyloxy]benzenesulphonyl}furan oxalate]	77.9	94.3	10.3			

— patent publication US5147878A, “Aminoalkoxyphenyl derivatives, process of preparation and compositions containing the same” (Sanofi, priority 1986, dated 1992)
